Data taken from ChEMBL document CHEMBL1134808, “Evolution of anti-HIV drug candidates. Part 1: From alpha-anilinophenylacetamide (alpha-APA) to imidoyl thiourea (ITU)” (Bioorg Med Chem Lett, 2001).
Counter-ions that a name gives are not always drawn.

What was measured:
[1] = tested on: Human immunodeficiency virus 1; test: Compound potency to achieve protection of MT-4 cells from HIV-1 cytopathicity; assay type: functional, organism-based, MT4
MT4 [2] = test: Compound was tested for potency to achieve protection of MT-4 cells from 103N strain of HIV-1 virus; assay type: functional, cell-based; conditions: Homo sapiens
MT4 [3] = test: Compound was tested for potency to achieve protection of MT-4 cells from 190A strain of HIV-1 virus; assay type: functional, cell-based; conditions: Homo sapiens
MT4 [4] = test: Compound was tested for potency to achieve protection of MT-4 cells from 181C strain of HIV-1 virus; assay type: functional, cell-based; conditions: Homo sapiens
MT4 [5] = test: Compound was tested for potency to achieve protection of MT-4 cells from LAI strain of HIV-1 virus; assay type: functional, cell-based; conditions: Homo sapiens
MT4 [6] = test: Compound was tested for potency to achieve protection of MT-4 cells from 101E strain of HIV-1 virus; assay type: functional, cell-based; conditions: Homo sapiens
MT4 [7] = test: Compound was tested for potency to achieve protection of MT-4 cells from 106A strain of HIV-1 virus; assay type: functional, cell-based; conditions: Homo sapiens
MT4 [8] = test: Compound was tested for potency to achieve protection of MT-4 cells from 188L strain of HIV-1 virus; assay type: functional, cell-based; conditions: Homo sapiens
MT4 [9] = test: Compound was tested for potency to achieve protection of MT-4 cells from 100I strain of HIV-1 virus; assay type: functional, cell-based; conditions: Homo sapiens
[10] = Human immunodeficiency virus 1, MT4

IC50 [1, 10] [nM] | Compound | further results
15 | N#Cc1ccc(NC(=O)NC(=N)Cc2c(Cl)cccc2Cl)cc1 | –
58900 | CN(/C(S)=N/C(=N)Cc1c(Cl)cccc1Cl)c1ccc(C#N)cc1 | –
42700 | N=C(Cc1c(Cl)cccc1Cl)NC(=S)Nc1c(Cl)cc(Cl)cc1Cl | –
7940 | N#Cc1ccc(NC(=N)NC(=N)Cc2c(Cl)cccc2Cl)cc1 | –
14 | N#Cc1ccc(NC(=S)NC(=N)Cc2ccccc2Cl)cc1 | –
160 | NC(=O)C(/N=C(\S)Nc1ccc(Cl)cc1)c1c(Cl)cccc1Cl (stereo not given) | –
400 | NC(=O)C(Nc1ccccc1Cl)c1c(Cl)cccc1Cl (stereo not given) | –
5 | N#Cc1ccc(NC(=S)NC(=N)Cc2c(Cl)ccc(Cl)c2Cl)cc1 | –
13 | N=C(Cc1c(Cl)cccc1Cl)NC(=S)Nc1ccc(Cl)cc1 | –
631000 | N#Cc1ccccc1NC(=S)NC(=N)Cc1c(Cl)cccc1Cl | –
> 60000 | NC(=O)C(/N=C(\S)Nc1ccccc1Cl)c1c(Cl)cccc1Cl (stereo not given) | –
126 | N#Cc1cccc(NC(=S)NC(=N)Cc2c(Cl)cccc2Cl)c1 | –
> 79000 | NC(=O)C(NC(=O)c1ccccc1[N+](=O)[O-])c1c(Cl)cccc1Cl (stereo not given) | –
> 250000 | NC(=O)C(NCc1ccccc1[N+](=O)[O-])c1c(Cl)cccc1Cl (stereo not given) | –
100000 | N#Cc1ccc(NC(=S)NS(=O)(=O)Cc2c(Cl)cccc2Cl)cc1 | –
> 160000 | NC(=O)C(Nc1ccc(Cl)cc1)c1c(Cl)cccc1Cl (stereo not given) | –
> 320000 | NC(=O)C(NC(=O)Nc1ccccc1[N+](=O)[O-])c1c(Cl)cccc1Cl (stereo not given) | –
– | CC(=O)c1ccc(C)cc1NC(C(N)=O)c1c(Cl)cccc1Cl (stereo not given) [LOVIRIDE] | IC50 (MT4 [2]): 1260 nM; IC50 (MT4 [3]): 2510 nM; IC50 (MT4 [4]): 15800 nM; IC50 (MT4 [5]): 50 nM; IC50 (MT4 [6]): 63 nM; IC50 (MT4 [7]): 1000 nM; IC50 (MT4 [8]): 50100 nM; IC50 (MT4 [9]): 50 nM
26 | Cc1ccccc1CC(=N)/N=C(\S)Nc1ccc(C#N)cc1 | –
30 | COc1ccccc1CC(=N)/N=C(\S)Nc1ccc(C#N)cc1 | –
214 | C/N=C(/Cc1c(Cl)cccc1Cl)NC(=O)Nc1ccc(C#N)cc1 | –

IC50 [1, 10] [nM] | Compound | further results
380 | N#Cc1ccc(NC(=S)NC(=N)Cc2ccccc2)cc1 | –
7 | N#Cc1ccc(NC(=S)NC(=N)Cc2ccc(Cl)cc2Cl)cc1 | –
158 | CCN/C(Cc1c(Cl)cccc1Cl)=N\C(S)=N\c1ccc(C#N)cc1 | –
1320 | N#Cc1ccc(NC(=S)/N=C(/Cc2c(Cl)cccc2Cl)Nc2ccccc2)cc1 | –
1480 | N#Cc1ccc(NC(=S)NC(=N)C2(c3c(Cl)cccc3Cl)CC2)cc1 | –
1620 | N=C(Cc1c(Cl)cccc1Cl)NC(=S)NCCc1ccc(Cl)cc1 | –
692 | N=C(Cc1c(Cl)cccc1Cl)NC(=S)NCc1ccc(Cl)cc1 | –
– | CC(C)Nc1cccnc1N1CCN(C(=O)c2cc3cc(NS(C)(=O)=O)ccc3[nH]2)CC1 [DELAVIRDINE MESYLATE] | IC50 (MT4 [2]): 2510 nM; IC50 (MT4 [3]): 63 nM; IC50 (MT4 [4]): 2000 nM; IC50 (MT4 [5]): 63 nM; IC50 (MT4 [6]): 158 nM; IC50 (MT4 [7]): 1590 nM; IC50 (MT4 [8]): 1260 nM; IC50 (MT4 [9]): 2510 nM
3 | N#Cc1ccc(NC(=S)NC(=N)Cc2c(Cl)cccc2Cl)cc1 | IC50 (MT4 [2]): 589 nM; IC50 (MT4 [3]): 2 nM; IC50 ([1]; mt4): 2.5 nM; IC50 (MT4 [4]): 511 nM; IC50 (MT4 [5]): 3 nM; IC50 (MT4 [6]): 19 nM; IC50 (MT4 [7]): 382 nM; IC50 (MT4 [8]): 318 nM; IC50 (MT4 [9]): 513 nM
22900 | N#Cc1ccc(NC(=S)NC(=N)c2c(Cl)cccc2Cl)cc1 | –
525 | N#Cc1ccc(NC(=S)NC(=N)CCc2c(Cl)cccc2Cl)cc1 | –
5200 | NC(=O)C(/N=C(\S)Nc1cccc(Cl)c1)c1c(Cl)cccc1Cl (stereo not given) | –
3.9 | CN/C(Cc1c(Cl)cccc1Cl)=N\C(S)=N\c1ccc(C#N)cc1 | –
347 | N=C(Cc1c(Cl)cccc1Cl)NC(=S)Nc1ccc(Cl)cc1Cl | –
123 | N=C(Cc1c(Cl)cccc1Cl)NC(=S)Nc1ccccc1 | –
100 | NC(=O)C(Nc1ccccc1[N+](=O)[O-])c1c(Cl)cccc1Cl (stereo not given) | –
6 | N#Cc1ccc(N/C(S)=N/C(=N)Cc2c(F)cccc2F)cc1 | –
148 | N#Cc1ccc(NC(=S)NC(=N)Cc2ccc(Cl)cc2)cc1 | –
68 | N#Cc1ccc(NC(=S)NC(=N)Cc2cccc(Cl)c2)cc1 | –
631000 | N#Cc1ccc(NC(=S)NC(=O)Cc2c(Cl)cccc2Cl)cc1 | –
158 | CC(C(=N)/N=C(\S)Nc1ccc(C#N)cc1)c1c(Cl)cccc1Cl (stereo not given) | –
